Results: article PMC8145596, “Novel Chemically Modified Curcumin (CMC) Derivatives Inhibit Tyrosinase Activity and Melanin Synthesis in B16F10 Mouse Melanoma Cells” (Biomolecules, 2021)
Entries after “also recorded” stand apart in the source; their conditions may differ. Like-named read-outs stand apart in the source and are kept apart here.

Legend:
[1] = system: MITF protein in B16F10 cells; test: MITF protein levels by cell-based ELISA; set-up: species or system mouse; settings: 48 h
Protocol: Microphthalmia Transcription Factor (MITF), a known transcription factor for the tyrosinase gene, is a master regulator of melanogenesis and is activated by cyclic adenosine monophosphate (cAMP) signaling after UV irradiation, reflecting the role of cAMP as a key maturation factor in melanogenesis. The effects of PC and CMCs on MITF protein levels were assayed using a cell-based ELISA (Lifespan Biosciences, Seattle, WA, USA). Briefly, B16F10 cells were cultured in a 96-well plate at 1 × 10^4 cells/well for 24 h and then the medium was replaced with fresh medium containing compounds in 0.1% DMSO and cultures maintained for further 48 h. The cells were then fixed, and subsequent steps were conducted according to the manufacturers’ instructions. MITF protein levels were normalized to cell density by measuring the absorbance of crystal violet stain added to the fixed cells and the data was reported as % of control.

[2] = DPPH radical scavenging antioxidant assay; settings: 60 μM DPPH, 30 min
Protocol: Melanin production catalyzed by the tyrosinase pathway is often associated with higher levels of oxidative stress and reactive oxygen species (ROS) generation. […] DPPH (2,2-Diphenyl-1-picrylhydrazyl) is a stable free radical which changes color from purple to yellow upon reduction by antioxidant compounds. Briefly, 180 µL of DPPH reagent that was prepared in methanol was combined with 20 µL of different concentrations of the compounds in a 96-well plate to give a final DPPH concentration of 60 μM in each well. A control group consisted of DPPH only while ascorbic acid (AA) at 20 µM was used as a positive control. The plate was covered and incubated for 30 min, after which the absorbance was read at 517 nm and the DPPH radical scavenging activity was reported as % of control.

[3] = system: tyrosinase activity in B16F10 cells; test: Recovery study of intracellular tyrosinase activity; format: cell-based, mouse
Protocol: In order to establish reversibility of tyrosinase inhibition by the CMCs, we conducted a recovery study for 48 h using the highest concentrations of the compounds that produced maximum inhibition of tyrosinase activity. B16F10 cells were plated in six-well plates at 3.5 × 10^4 cells/well and then compounds were added the next day. Tyrosinase activity was estimated after 48 h exposure in cellular lysates and another set of cultures were continued with fresh medium without the compounds to study the recovery of tyrosinase activity for 48 h. Results are expressed as % tyrosinase activity for both 48 h exposure and 48 h recovery.

[4] = system: cAMP levels in B16F10 cells; test: cAMP levels by competitive ELISA in B16F10 lysates; format: cell-based, mouse; settings: for effect on cAMP levels: all concentrations tested
Description: For assaying the levels of cAMP in B16F10 cellular lysates, a competitive ELISA (Enzo Life Sciences, Farmingdale, NY, USA) was used in non-acetylated format based on manufacturer instructions.

mushroom tyrosinase = mushroom tyrosinase (Agaricus bisporus, UniProt C7FF04); test: Monophenolase activity assay of mushroom tyrosinase (L-Tyrosine substrate); format: biochemical; settings: for mechanism of inhibition of monophenolase activity: L-B and Dixon plots, nonlinear curve fitting; for Ki: read-out: apparent Ki, monophenolase (L-TYR)
Protocol: The direct effects of the compounds on the monophenolase activity of tyrosinase were tested using mushroom tyrosinase enzyme with a fixed concentration of L-Tyrosine (L-Tyr) as the substrate. Briefly, 80 µL of compounds prepared at different concentrations in 50 mM sodium phosphate (pH 6.8) buffer were added to wells of a 96-well microplate followed by 100 µL of 2 mM L-Tyr solution. The reaction was initiated by adding 20 µL of mushroom tyrosinase (final concentration of enzyme in wells was 12.5 µg/mL) and was monitored by measuring absorbance at 475 nm every 30 s over a 30 min period, using a microplate reader (Versamax®) in the kinetic mode. The slopes of the plots of absorbance vs. time were calculated for comparison of enzyme activity in the presence of each of the inhibitors to that of an inhibitor-free control and reported as percentage of control activity (%).
In order to study the mechanism of inhibition of tyrosinase activity by the compounds as a function of substrate concentration, we conducted a kinetic study of monophenolase and diphenolase activities at multiple concentrations of substrates. For the monophenolase activity assay, the final concentration of enzyme was 12.5 µg/mL and the final substrate concentrations were 0.125, 0.25, 0.5 and 1 mM, while for diphenolase activity assay, the final concentration of enzyme was 3.5 µg/mL and the final substrate concentrations ranged from 0.1–3 mM. The slopes from the linear range of the progress curves of absorbance at 475 nm vs. time were recorded as apparent velocities and the reciprocal values, 1/v, were plotted as functions of the reciprocal values of the substrate concentrations at different fixed inhibitor concentrations according to the method of Lineweaver and Burk (L-B). Dixon plots of the reciprocal velocity values, (1/v), as functions of the inhibitor concentrations at different fixed substrate concentrations were also constructed to investigate further the apparent mode of inhibition by the compounds.
We have also analyzed the inhibition data using nonlinear curve fitting algorithms which are more robust than the linearized L-B and Dixon plotting methods that can weigh the data from evenly spaced concentrations disproportionately. The inhibition constants were calculated by non-linear least squares curve fitting using a modified Levenberg-Marquardt algorithm and data was fitted to models of pure competitive, noncompetitive, and uncompetitive inhibition using Enzfitter software (version 2.0, Biosoft, Cambridge, UK). This analysis was undertaken to assess the apparent potency of compounds, PC, CMC2.24, and CMC2.23 for each putative mode of inhibition.

[5] = system: B16F10 mouse melanoma cells; test: Melanin levels in B16F10 cells; format: cell-based; settings: for suppression of melanin levels: 48 h
Protocol: B16F10 cells (1 × 10^5 cells/well) were seeded in 12-well plates and cultured for 24 h. The medium was then replaced with compounds at nontoxic concentrations that were selected on the basis of the MTS assay and incubated for another 48 h. After the treatments, the cells were detached using TrypLE (1×), and cell pellets were washed in PBS. Cell pellets were visually observed for lightening of the pigment. After aspiration, 250 μL of 1N NaOH was added and heated to 70 °C to solubilize melanin. The aliquots were then transferred to a 96-well plate and absorbance was read at 475 nm using a microplate reader. The absorbance was normalized to total protein content and was expressed as % of control.

[6] = Mus musculus, B16-F10, 48 h, read-out: loss of tyrosinase activity after 48 h exposure (recovery study)

mushroom tyrosinase, sequence (C7FF04 1-392): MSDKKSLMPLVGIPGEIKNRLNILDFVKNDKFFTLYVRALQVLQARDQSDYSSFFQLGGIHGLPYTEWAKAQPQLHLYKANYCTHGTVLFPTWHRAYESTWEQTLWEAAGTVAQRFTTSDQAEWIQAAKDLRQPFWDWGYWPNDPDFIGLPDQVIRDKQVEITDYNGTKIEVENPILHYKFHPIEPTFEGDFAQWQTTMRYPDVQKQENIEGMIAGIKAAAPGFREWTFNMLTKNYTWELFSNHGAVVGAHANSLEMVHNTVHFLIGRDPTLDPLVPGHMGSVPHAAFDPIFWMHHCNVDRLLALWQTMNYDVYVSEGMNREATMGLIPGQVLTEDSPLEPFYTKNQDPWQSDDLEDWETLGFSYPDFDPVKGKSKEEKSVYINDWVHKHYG

| Molecule | attenuation of MITF protein levels ([1]; 10 µM) | attenuation of MITF protein levels ([1]; 20 µM) | attenuation of MITF protein levels ([1]; 25 µM) | DPPH radical scavenging activity [2] | inhibition at 20 µM [3, 6] | effect on cAMP levels ([4]; 48 h) | mechanism of inhibition of monophenolase activity (mushroom tyrosinase) | suppression of melanin levels ([5]; 10 µM) | suppression of melanin levels ([5]; 20 µM) | suppression of melanin levels ([5]; 25 µM) | tyrosinase activity after 48 h recovery in compound-free medium ([3]; after exposure to 10 µM) | further results |
| --- | --- | --- | --- | --- | --- | --- | --- | --- | --- | --- | --- | --- |
| COc1cc(/C=C/C(=O)/C(C(=O)Nc2ccccc2)=C(O)/C=C/c2ccc(O)c(OC)c2)ccc1O [CMC2.23] | 32.27% | 39.29% | 37.22% | significant radical scavenging activity | 52.7% | did not affect cAMP levels at any concentration | mixed, but predominantly competitive, mode of inhibition | 28.63% | 33.68% | 37.87% | – | – |
| O=C(/C=C/c1ccc(O)cc1)/C(C(=O)Nc1ccccc1)=C(O)/C=C/c1ccc(O)cc1 [CMC2.24] | 28.39% | 31.79% | 38.84% | did not demonstrate such activity | 73.3% | – | mixed mode of inhibition with a predominantly competitive mechanism | 32.54% | 43.53% | 41.07% | – | attenuation of cAMP levels ([4]; 10 µM, 48 h (not significant)): 18.13%; attenuation of cAMP levels ([4]; 20 µM, 48 h): 38.18%; attenuation of cAMP levels ([4]; 25 µM, 48 h): 49.42%; inhibition at 5 µM (mushroom tyrosinase; 5 μM compound, 1 mM L-Tyr final): 32.1%; inhibition at 10 µM (mushroom tyrosinase; 10 μM compound): 34.7%; inhibition at 20 µM (mushroom tyrosinase; 20 μM compound): 34.8%; inhibition at 25 µM (mushroom tyrosinase; 25 μM compound): 37%; fold higher level of melanin inhibition vs PC ([5]; 20 µM): 1.5 fold; fold higher level of melanin inhibition vs PC ([5]; 25 µM): 2 fold |
| 1,7-bis(4-hydroxy-3-methoxyphenyl)-1,6-heptadien-3,5-dione [PC, reference compound] | 28.62% | – | – | high radical scavenging activity | – | trend for attenuation of cAMP levels, but the levels were not significant | not a pure competitive inhibitor; also recorded: mixed inhibitor | 20.92% | – | – | did not differ from that of the control group | inhibition ([3]; 10 µM, read-out: loss of tyrosinase activity after 48 h exposure (recovery study)): 89.5%; inhibition of monophenolase activity (mushroom tyrosinase; 10 μM compound): 14.41%; inhibition of monophenolase activity (mushroom tyrosinase; 20 μM compound): 21.31%; inhibition of monophenolase activity (mushroom tyrosinase; 25 μM compound): 22.10%; Ki (mushroom tyrosinase; fit to pure competitive inhibition): 7.74 µM; Ki (mushroom tyrosinase; fit to pure noncompetitive inhibition): 50.8 µM; Ki (mushroom tyrosinase; fit to pure uncompetitive inhibition): 40.2 µM; IC50 (mushroom tyrosinase; fixed substrate concentration (L-Tyr), read-out: IC50 for Monophenolase Inhibition): 67 ± 2.4 µM |
| COC(=O)/C(C(=O)/C=C/c1ccc(O)cc1)=C(O)\C=C\c1ccc(O)cc1 [CMC2.14] | 23.67% | – | – | did not demonstrate such activity | – | did not affect cAMP levels at any concentration | – | 28.42% | – | – | 100% | inhibition at 10 µM ([3]; Mus musculus, B16-F10, 48 h, 10 µM, read-out: loss of tyrosinase activity after 48 h exposure (recovery study)): 74.8% |
| COC(=O)/C(C(=O)/C=C/c1ccc(O)c(OC)c1)=C(O)\C=C\c1ccc(O)c(OC)c1 [CMC2.5, 4-methoxycarbonyl curcumin] | – | 32.17% | 35.4% | significant radical scavenging activity | 42.5% | did not affect cAMP levels at any concentration | – | – | 34.84% | 31.40% | – | tyrosinase activity after 48 h recovery in compound-free medium ([3]; after exposure to 20 µM): 100% |
